The values below come from US5180742A, “Quinone derivatives, their production and use” (Takeda Chemical Industries, Ltd., priority 1984, dated 1993).

One experiment deals with PAF-induced bronchoconstriction. As to the kind of experiment: Effect on PAF-induced bronchoconstriction in guinea pigs. Type of experiment: in vivo. The settings on record: 0.31 mg/kg oral, one hour before PAF. As to the method:
Platelet Activating Factor (PAF)-Induced Bronchoconstriction in Guinea Pigs
Experimental procedure in this experiment was the same as that in LTD4 -induced bronchoconstriction shown in Experimental example 7. PAF is an intraveneous dose of 1 μg/kg was used. Each specimen suspended in a 5% gum arabic solution was given orally one hour before the PAF administration.
As to `CC1=C(C)C(=O)C(C(CCCCCC(N)=O)c2ccccc2)=C(C)C1=O` (stereo not drawn) [compound 146, 7-(3,5,6-trimethyl-1,4-benzoquinon-2-yl)-7-phenylheptanamide], the “% Inhibition of PAF-induced bronchoconstriction” value (from here on “% Inhibition”) was 49.7%.

Staying with this experiment, now noted: 1.25 mg/kg oral, one hour before PAF.
As for `CC1=C(C)C(=O)C(C(CCCCCC(N)=O)c2ccccc2)=C(C)C1=O` (stereo not drawn) [compound 146, 7-(3,5,6-trimethyl-1,4-benzoquinon-2-yl)-7-phenylheptanamide], the “% Inhibition” value was 80.3%.

The experiment is the same for the next values; noted with them: 5 mg/kg oral, one hour before PAF.
Consider `CC1=C(C)C(=O)C(C(CCCCCC(N)=O)c2ccccc2)=C(C)C1=O` (stereo not drawn) [compound 146, 7-(3,5,6-trimethyl-1,4-benzoquinon-2-yl)-7-phenylheptanamide], for which the “% Inhibition” value is reported as 100.0%.

As for `CC1=C(C)C(=O)C(C(CCCCCC(=O)N2CCN(CCc3ccccc3)CC2)c2ccccc2)=C(C)C1=O` (stereo not drawn) [compound 163, 4-[7-(3,5,6-trimethyl-1,4-benzoquinon-2-yl)-7-phenylheptanoyl]-(2-phenylethyl)piperazine], the “% Inhibition” value is listed as 59.9%.

The next experiment deals with Immunoglobulin-G1 mediated bronchoconstriction reaction. As to the kind of experiment: Action on immunoglobulin-G1 mediated bronchoconstriction reaction in guinea pigs. The settings on record: Cavia porcellus; 20 mg/kg oral, 1 hour before antigen. Type of experiment: in vivo, Hartley guinea pigs. As to the method:
Action on the Immunoglobulin-G1 Mediated Bronchoconstriction Reaction in Guinea Pigs
In accordance with the method of Orange and Moore (Orange, R. P. and Moore E. G. , J. Immunol., 116, 392-397, 1976), female and male Hartley guinea pigs weighing about 350 g were sensitized by intraperitoneal application of an emulsion (1 ml) composed of egg albumin (1 mg) and Freund's complete adjuvant (produced by Wako Pure-Chemical Industries, Ltd. of Japan). 3 Weeks after the sensitization, a serum antibody level in the sensitized guinea pigs was measured by means of the 3-hours passive cutaneous anaphylaxis (PCA) reaction in guinea pigs. […] The broncoconstriction reaction resulting from the antigen-antibody reaction was measured in accordance with the Konzett-Rossler method (Konzett, H. and Rossler, R., Naunyn-Schmiedeberg'ss Arch. exp. Path. pharmak., 195, 71-74, 1940). The guinea pigs were fixed on the dorsal position under anesthesia with a urethane (1.5 g/kg given intraperitonealy). An incision was made through the trachea, which was connected to an artificial respirator (manufactured by Harvard Co.) through an endotracheal tube, with a side tube of the endotracheal tube being attached to a brochoconstricting transducer (type 7020, manufactured by Ugobasile Co.). While an air volume per ventilation was adjusted to 5 to 7 ml and an air ventilation rate was controlled at 70 times/min., with a load pressure to the lung set at 10 cm H2 O, the overflown air volume was recorded on Rectigraphy-8S (manufactured by Sanei Sokki Inc. of Japan) through a transducer. After 1 mg/kg of gallamine triethiodide was given intravenously to the animals, 1 mg/kg of antigen, egg albumin dissolved in physiological saline, was applied intravenously to induce a brochoconstriction reaction. The bronchconstriction reaction was recorded for the period of time of 15 minutes. A drug was suspended in 5% gum arabic solution, and given orally 1 hour before the application of the antigen. Percent inhibition of the immunoglobuin G1 mediated bronchoconstriction reaction in guinea pigs are shown below in Table 3.
For orientation: inhibition in vivo means the change of the read-out against control, counted positive when it falls. Low readings indicate a response near the control, high ones a response far below the control. As for `CC1=C(C)C(=O)C(C(CCCCCCC(=O)O)c2ccccc2)=C(C)C1=O` (stereo not drawn) [Compound No. 9, 8-phenyl-8-(3,5,6-trimethyl-1,4-benzoquinon-2-yl)octanoic acid], the inhibition in vivo at 20 mg/kg was 71%.

Compound `CC1=C(C)C(=O)C(C(CCCCC(=O)O)c2ccccc2)=C(C)C1=O` (stereo not drawn) [Compound No. 10] showed an inhibition in vivo at 20 mg/kg of 80%.

In the case of `CC1=C(C(CCCCC(=O)O)c2ccccc2)C(=O)c2ccccc2C1=O` (stereo not drawn) [Compound No. 12], the inhibition in vivo at 20 mg/kg turned out to be 78%.

In turn, `CC1=C(C(CCCCCCC(=O)O)c2ccccc2)C(=O)c2ccccc2C1=O` (stereo not drawn) [Compound No. 14] had an inhibition in vivo at 20 mg/kg of 78%.

In turn, `CC1=C(C)C(=O)C(C(CCCCCCO)c2ccccc2)=C(C)C1=O` (stereo not drawn) [Compound No. 45, 7-(3,5,6-trimethyl-1,4-benzoquinon-2-yl)-7-phenylheptanol] came in with an inhibition in vivo at 20 mg/kg of 91%.

Turning to `CC1=C(C)C(=O)C(C(CCCCCCC(=O)O)c2ccc3c(c2)CCC3)=C(C)C1=O` (stereo not drawn) [compound 25], the inhibition in vivo at 20 mg/kg was 83%.

In turn, `COc1ccc(C(CCCCCC(=O)O)C2=C(C)C(=O)c3ccccc3C2=O)cc1` (stereo not drawn) [compound 26] showed an inhibition in vivo at 20 mg/kg of 85%.

Take `CC1=C(C(CCCCCC(=O)O)c2ccc3ccccc3c2)C(=O)c2ccccc2C1=O` (stereo not drawn) [compound 27]: the inhibition in vivo at 20 mg/kg amounted to 81%.

In turn, `CC1=C(C(CCCCCC(=O)O)c2ccc3c(c2)CCC3)C(=O)c2ccccc2C1=O` (stereo not drawn) [compound 28] displayed an inhibition in vivo at 20 mg/kg of 85%.

On to `CC1=C(C(CCCCCCC(=O)O)c2ccc3c(c2)CCC3)C(=O)c2ccccc2C1=O` (stereo not drawn) [compound 29], for which 20 mg/kg produced 81% inhibition in vivo.

`CC1=C(C(CCCC(=O)O)c2ccccc2)C(=O)c2ccccc2C1=O` (stereo not drawn) [compound 38] showed an inhibition in vivo at 20 mg/kg of 73%.

Turning to `CCCCCCC(C1=C(C)C(=O)C(C)=C(C)C1=O)c1ccccc1` (stereo not drawn) [compound 49], 20 mg/kg produced 84% inhibition in vivo.

Regarding `CC1=C(C)C(=O)C(C(CCCCCCOC(N)=O)c2ccccc2)=C(C)C1=O` (stereo not drawn) [compound 59], the inhibition in vivo at 20 mg/kg turned out to be 83%.

For the compound `CC1=C(C)C(=O)C(C(CCCCCCCO)c2ccc3c(c2)CCC3)=C(C)C1=O` (stereo not drawn) [compound 76], the inhibition in vivo at 20 mg/kg was determined as 89%.

In the case of `CC1=C(C(CCCCCC(=O)O)c2ccccc2)C(=O)c2ccccc2C1=O` (stereo not drawn) [compound 86], 20 mg/kg produced 80% inhibition in vivo.

With `CC1=C(C(CCCCCC(=O)O)c2ccc(F)cc2)C(=O)c2ccccc2C1=O` (stereo not drawn) [compound 89], the inhibition in vivo at 20 mg/kg was determined as 65%.

For a further experiment, the target named is T1, 5-Lipoxygenase (Rattus norvegicus, UniProt P12527).
T1 construct: endogenous in cells; host or cells: RBL-1 (rat basophilic leukemia cells)
T1 sequence (P12527 1-673): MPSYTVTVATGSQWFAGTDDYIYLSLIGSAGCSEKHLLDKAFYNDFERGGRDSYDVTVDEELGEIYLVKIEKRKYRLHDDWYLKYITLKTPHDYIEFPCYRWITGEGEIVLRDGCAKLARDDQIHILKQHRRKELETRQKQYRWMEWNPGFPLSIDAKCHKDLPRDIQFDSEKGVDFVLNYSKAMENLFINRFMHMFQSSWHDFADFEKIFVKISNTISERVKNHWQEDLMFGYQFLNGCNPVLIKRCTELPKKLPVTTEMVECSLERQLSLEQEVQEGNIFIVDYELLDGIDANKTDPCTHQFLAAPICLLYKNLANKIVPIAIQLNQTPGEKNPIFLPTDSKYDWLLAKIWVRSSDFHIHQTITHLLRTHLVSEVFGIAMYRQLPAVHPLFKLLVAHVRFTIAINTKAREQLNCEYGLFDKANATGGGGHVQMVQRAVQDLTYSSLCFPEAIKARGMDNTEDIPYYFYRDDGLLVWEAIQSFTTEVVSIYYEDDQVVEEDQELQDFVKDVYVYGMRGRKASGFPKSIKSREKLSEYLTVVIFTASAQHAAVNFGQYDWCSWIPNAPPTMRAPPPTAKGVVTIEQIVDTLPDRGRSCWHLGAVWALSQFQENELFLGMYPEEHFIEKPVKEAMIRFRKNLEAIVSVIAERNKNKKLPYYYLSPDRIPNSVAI
The experiment is described as follows: 5-Lipoxygenase inhibitory activity: 5-HETE production in RBL-1 cells (HPLC). It counts as cell-based, rat (RBL-1, rat basophilic leukemia cells). The settings on record: arachidonic acid + A 23187, 37° C., 20 minutes, read-out: 5-HETE production inhibiting effect (IC50). On the procedure: 5-Lipoxygenase Inhibitory Activity
10^7 RBL-1 cells (rat basophilic leukemia cells) were suspended in 0.5 ml of MCM (mast cell medium), and test solutions (made up of 0.5 ml of MCM, 50 μg of arachidonic acid, 10 μg of A 23187 (calcium ionophore, Eli Lilly) and 1 μM, 0.1 μM, 0.01 μM and0.001 μM as the final concentration of the quinone compound, respectively) prepared previously were added respectively to the suspension, followed by reaction at 37° C. for 20 minutes. After the conclusion of the reaction, 4 ml of ethanol and 1,4-dimethoxy-2-methyl-3-(3-methoxypropyl)naphthalene as the internal reference drug were added to the reaction solution, and the mixture was shaken thoroughly and allowed to stand at room temperature for 10 minutes. Then, it was centrifuged (2000 r.p.m.) for 10 minutes, and the supernatant fluid was separated and concentrated to dryness under reduced pressure. 0.5 Milliliter of 60% aqueous methanol was added to the concentrate, and 100 μl of the resulting solution was taken and subjected to high-performance liquid chromatography to determine amount of 5-HETE (5-hydroxyeicosatetraenoic acid). Determination of 5-HETE was made through measurement of an absorption at 237 nm with a UV absorption monitor.
The 5-HETE production inhibitory effect (IE) was expressed by [formula] wherein a is a peak height or peak area corrected by the peak for the internal reference when the quinone compound is not contained; b is a peak height or peak area corrected by the peak for the internal reference when the quinone compound is contained.
By IC50 is commonly meant the concentration at which inhibition is half-maximal. `CCOC(=O)CCCCC(C1=C(C)C(=O)C(C)=C(C)C1=O)c1cccs1` (stereo not drawn) [Compound No. 1, ethyl 6-(3,5,6-trimethyl-1,4-benzoquinon-2-yl)-6-(2-thienyl)hexanoate]: the IC50 stood at 80 nM.

In the case of `CCOC(=O)CCCCC(C1=C(C)C(=O)c2ccccc2C1=O)c1cccs1` (stereo not drawn) [Compound No. 3], the IC50 came out at 60 nM.

On to `CCOC(=O)CCCCC(C1=C(C)C(=O)c2ccccc2C1=O)c1ccccc1` (stereo not drawn) [Compound No. 5], for which the IC50 was found to be 30 nM.

For `CCOC(=O)CCCCC(C1=C(C)C(=O)C(OC)=C(OC)C1=O)c1cccs1` (stereo not drawn) [Compound No. 6], the IC50 worked out at 28 nM.

Regarding `CCOC(=O)CCCCC(C1=C(C)C(=O)C(OC)=C(OC)C1=O)c1ccccc1` (stereo not drawn) [Compound No. 7], the IC50 stood at 140 nM.

In the case of `CC1=C(C)C(=O)C(C(CCCCCCC(=O)O)c2ccccc2)=C(C)C1=O` (stereo not drawn) [Compound No. 9, 8-phenyl-8-(3,5,6-trimethyl-1,4-benzoquinon-2-yl)octanoic acid], the IC50 was determined as 32 nM.

As for `CC1=C(C)C(=O)C(C(CCCCC(=O)O)c2ccccc2)=C(C)C1=O` (stereo not drawn) [Compound No. 10], the IC50 stood at 34 nM.

As for `CC1=C(C)C(=O)C(C(CCCCCCCCC(=O)O)c2ccccc2)=C(C)C1=O` (stereo not drawn) [Compound No. 11], the IC50 came to 34 nM.

Consider `CC1=C(C(CCCCC(=O)O)c2cccs2)C(=O)c2ccccc2C1=O` (stereo not drawn) [Compound No. 13], for which the IC50 stood at 80 nM.

Take `CC1=C(C(CCCCCCC(=O)O)c2ccccc2)C(=O)c2ccccc2C1=O` (stereo not drawn) [Compound No. 14]: the IC50 came out at 200 nM.

Consider `CC1=C(C)C(=O)C(C(CCC(=O)O)c2ccccc2)=C(C)C1=O` (stereo not drawn) [Compound No. 35, 4-(3,5,6-trimethyl-1,4-benzoquinon-2-yl)-4-phenylbutyric acid], for which the IC50 turned out to be 440 nM.

As for `COC1=C(OC)C(=O)C(C(CCC(=O)O)c2ccccc2)=C(C)C1=O` (stereo not drawn) [Compound No. 39], the IC50 was determined as 1300 nM.

`CC1=C(C)C(=O)C(C(CCCCCCO)c2ccccc2)=C(C)C1=O` (stereo not drawn) [Compound No. 45, 7-(3,5,6-trimethyl-1,4-benzoquinon-2-yl)-7-phenylheptanol]: the IC50 stood at 28 nM.

Consider `COC1=C(OC)C(=O)C(C(CCCCCCO)c2ccccc2)=C(C)C1=O` (stereo not drawn) [Compound No. 56, 7-(5,6-dimethoxy-3-methyl-1,4-benzoquinon-2-yl)-7-phenylheptanol], for which the IC50 is 62 nM.

With `CC1=C(C(CCCCCCCCC(=O)O)c2ccccc2)C(=O)c2ccccc2C1=O` (stereo not drawn) [compound 15], the IC50 is 50 nM.

Take `COC1=C(OC)C(=O)C(C(CCCCC(=O)O)c2ccccc2)=C(C)C1=O` (stereo not drawn) [compound 16]: the IC50 was determined as 32 nM.

Turning to `COC1=C(OC)C(=O)C(C(CCCCC(=O)O)c2cccs2)=C(C)C1=O` (stereo not drawn) [compound 17], the IC50 was found to be 200 nM.

Regarding `COC1=C(OC)C(=O)C(C(CCCCCCC(=O)O)c2ccccc2)=C(C)C1=O` (stereo not drawn) [compound 18], the IC50 is 200 nM.

As for `CC1=C(C)C(=O)C(C(CCCO)c2ccccc2)=C(C)C1=O` (stereo not drawn) [compound 46], the IC50 was determined as 730 nM.
